Laboratory results reported in patent publication US20120129842A1, “BISTHIAZOLE INHIBITORS OF PRO-MATRIX METALLOPROTEINASE ACTIVATION” (priority 2010, published 2012).
Counter-ions that a name gives are not always drawn.

What was measured:
[1] = target: proMMP13(1-268) (SEQ ID NO:7) (Homo sapiens, UniProt P45452); experiment: ThermoFluor binding assay with proMMP13(1-268); design: 6xHis (C); made in house; details: pH 7.0
Procedure: The ThermoFluor® (TF) assay is a 384-well plate-based binding assay that measures thermal stability of proteins (Biomol Screen 2001, 6, 429-40; Biochemistry 2005, 44, 5258-66). The experiments were carried out using instruments available from Johnson & Johnson Pharmaceutical Research & Development, LLC. TF dye used in all experiments was […] (1,8-ANS) (Invitrogen: A-47).
Compounds were arranged in a pre-dispensed plate (Greiner Bio-one: 781280), wherein compounds were serially diluted in 100% DMSO across 11 columns within a series. Columns 12 and 24 were used as DMSO reference and contained no compound. For multiple compound concentration-response experiments, the compound aliquots ([…]) were robotically predispensed directly into black 384-well polypropylene PCR microplates (Abgene: TF-0384/k) using a Cartesian Hummingbird liquid handler (DigiLab, Holliston, Mass.). Following compound dispense, protein and dye solutions were added to achieve the final assay volume of 3 μL. The assay solutions were overlayed with 1 μL of silicone oil (Fluka, type DC 200: 85411) to prevent evaporation.
Assay plates were robotically loaded onto a thermostatically controlled PCR-type thermal block and then heated from 40 to 90° C. at a ramp-rate of 1° C./min for all experiments. Fluorescence was measured by continuous illumination with UV light (Hamamatsu LC6) supplied via fiber optics and filtered through a band-pass filter (380-400 nm; >6 OD cutoff). Fluorescence emission of the entire 384-well plate was detected by measuring light intensity using a CCD camera (Sensys, Roper Scientific) filtered to detect 500±25 nm, resulting in simultaneous and independent readings of all 384 wells. A single image with 20-sec exposure time was collected at each temperature, and the sum of the pixel intensity in a given area of the assay plate was recorded vs temperature and fit to standard equations to yield the Tm (J Biomol Screen 2001, 6, 429-40).
Thermodynamic parameters necessary for fitting compound binding for each proMMP were estimated by differential scanning calorimetry (DSC) and from ThermoFluor® data. The heat capacity of unfolding for each protein was estimated from the molecular weight and from ThermoFluor® dosing data.
The proMMP13(1-268) (SEQ ID NO:7) protein sample preparations included a desalting buffer exchange step via a PD-10 gravity column (GE Healthcare). The desalting buffer exchange was performed prior to diluting the protein to the final assay concentration of 3.5 μM. The concentration of proMMP13(1-268) (SEQ ID NO:7) was estimated spectrophotometrically based on a calculated extinction coefficient of ε280=37000 M^−1cm^−1, a calculated molecular weight of 30.8 kDa, and calculated pI of 5.33. ThermoFluor® reference conditions were defined as follows: 100 μg/mL proMMP13(1-268) (SEQ ID NO:7), 25 μM 1,8-ANS, pH 7.0 Buffer (50 mM HEPES pH 7.0, 100 mM NaCl, 0.001% Tween-20, 2.5 mM MgCl2, 300 μM CaCl2). The thermodynamic parameters for proMMP13(1-268) (SEQ ID NO:7) are as follows: Tm (° C.)=67 (+/−0.1), ΔUH(Tm) (cal mol^−1)=107000(+/−5000), ΔUS(Tm) (cal mol^−1 K^−1)=318, ΔUCp (cal mol^−1 K^−1)=2600.

[2] = target: T1, proMMP9(20-445;ΔFnII) (SEQ ID NO:6) (Homo sapiens, UniProt P14780, DEL216-390); experiment: ThermoFluor binding assay with proMMP9(20-445;ΔFnII); details: pH 7.0
T1 construct: start methionine (N); made in house; host or cells: E. coli BL21(DE3) RIL
T1 sequence (P14780 with tags, fused parts or gaps DEL216-390): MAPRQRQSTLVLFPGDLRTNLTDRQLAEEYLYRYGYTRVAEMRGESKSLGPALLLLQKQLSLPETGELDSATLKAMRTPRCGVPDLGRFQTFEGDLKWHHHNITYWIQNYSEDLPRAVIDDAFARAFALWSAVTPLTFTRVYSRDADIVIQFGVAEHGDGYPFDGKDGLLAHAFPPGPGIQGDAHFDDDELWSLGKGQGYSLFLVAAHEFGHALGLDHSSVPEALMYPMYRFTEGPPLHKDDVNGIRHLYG
How it was run: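 proMMP9(20-445;ΔFnII) at 2.8 μM with 50 μM 1,8-ANS in 50 mM HEPES pH 7.0, 100 mM NaCl, 0.001% Tween-20, 2.5 mM MgCl2, 300 μM CaCl2; compounds serially diluted in DMSO. Heated 40–90 °C at 1 °C/min, fluorescence read at 500±25 nm. Tm fit by standard equations; binding fit using DSC/TF-derived thermodynamic parameters.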

[3] = target: T2, proMMP9(67-444;ΔFnII) (SEQ ID NO:5) (Homo sapiens, UniProt P14780, DEL216-390); experiment: ThermoFluor binding assay with proMMP9(67-444;ΔFnII); details: pH 7.0
T2 construct: start methionine (N); made in house; host or cells: E. coli BL21(DE3) RIL
T2 sequence (P14780 with tags, fused parts or gaps DEL216-390): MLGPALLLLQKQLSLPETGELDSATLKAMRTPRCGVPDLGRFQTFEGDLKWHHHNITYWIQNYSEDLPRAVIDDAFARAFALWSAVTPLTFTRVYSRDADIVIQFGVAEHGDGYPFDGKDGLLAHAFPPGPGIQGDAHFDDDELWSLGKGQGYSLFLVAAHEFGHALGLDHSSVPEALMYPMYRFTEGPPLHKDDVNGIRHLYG
How it was run: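 Thermal shift binding with 3.5 μM proMMP9(67-444;ΔFnII) and 50 μM 1,8-ANS in 50 mM HEPES pH 7.0, 100 mM NaCl, 2.5 mM MgCl2, 300 μM CaCl2, 0.001% Tween-20, with serially diluted compound. Heated 40 to 90° C at 1° C/min; fluorescence-derived Tm fitted using DSC/ThermoFluor thermodynamic parameters.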

[4] = target: T3, full-length proMMP9(1-707) (SEQ ID NO:1) (Homo sapiens, UniProt P14780, R574P); experiment: proMMP9/MMP3 P126 Activation Assay; assay type: biochemical; details: 20 nM proMMP9, 20 nM MMP3, 80 min 37° C.
T3 construct: made in house; host or cells: HEK293 (proMMP9, secreted); E. coli (MMP3)
T3 sequence (P14780 20-707 R574P): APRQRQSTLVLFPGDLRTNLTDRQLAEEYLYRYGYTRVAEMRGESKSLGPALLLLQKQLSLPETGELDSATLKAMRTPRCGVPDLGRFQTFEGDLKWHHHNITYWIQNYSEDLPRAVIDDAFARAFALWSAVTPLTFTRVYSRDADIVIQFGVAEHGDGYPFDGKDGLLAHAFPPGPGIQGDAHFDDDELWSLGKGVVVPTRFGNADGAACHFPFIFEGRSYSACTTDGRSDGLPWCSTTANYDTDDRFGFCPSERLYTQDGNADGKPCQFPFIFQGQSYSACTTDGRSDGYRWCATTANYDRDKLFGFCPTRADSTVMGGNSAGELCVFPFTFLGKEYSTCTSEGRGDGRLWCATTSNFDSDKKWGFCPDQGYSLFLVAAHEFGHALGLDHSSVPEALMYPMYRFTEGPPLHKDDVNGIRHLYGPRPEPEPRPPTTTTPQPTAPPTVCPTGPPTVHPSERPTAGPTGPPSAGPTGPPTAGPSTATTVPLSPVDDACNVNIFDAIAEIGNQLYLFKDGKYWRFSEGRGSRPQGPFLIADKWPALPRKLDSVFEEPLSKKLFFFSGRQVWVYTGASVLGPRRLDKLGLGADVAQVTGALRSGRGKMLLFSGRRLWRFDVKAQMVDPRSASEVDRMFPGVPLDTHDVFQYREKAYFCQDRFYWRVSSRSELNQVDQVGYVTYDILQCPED
Procedure: The reaction volume was 50 μL. […] Reactivity of residual MMP3 towards P-126 substrate was minimal under these conditions.

| SMILES | Kd [1] [µM] | Kd [2] [µM] | Kd [3] [µM] | IC50 [4] [µM] |
| --- | --- | --- | --- | --- |
| Cc1nc(C)c(-c2csc(Nc3cc(C(N)=O)ccc3OC3CCCC3)n2)s1 [Example 15, 4-Cyclopentyloxy-3-(2′,4′-dimethyl-[4,5′]bithiazolyl-2-ylamino)-benzamide] | 13 | 7.9 | > 95 | > 20 |
| Cc1nc(C)c(-c2csc(Nc3cc(C(N)=O)ccc3OCC(C)C)n2)s1 [Example 28, 3-(2′,4′-Dimethyl-[4,5′]bithiazolyl-2-ylamino)-4-isobutoxy-benzamide] | 56 | 11 | > 95 | > 20 |
| Cc1cc2cccc(Nc3nc(-c4sc(C)nc4C)cs3)c2o1 [Example 29, (2′,4′-Dimethyl-[4,5′]bithiazolyl-2-yl)-(2-methyl-benzofuran-7-yl)-amine] | > 95 | 61 | > 95 | 3.8 |
| COc1ccc(CC(N)=O)cc1Nc1nc(-c2sc(C)nc2C)cs1 [Example 30, 2-[3-(2′,4′-Dimethyl-[4,5′]bithiazolyl-2-ylamino)-4-methoxy-phenyl]-acetamide] | > 95 | 18 | 4.9 | 4.1 |
| COc1cc2c(cc1Nc1nc(-c3sc(C)nc3C)cs1)C(=O)NC2 [Example 31, 6-(2′,4′-Dimethyl-[4,5′]bithiazolyl-2-ylamino)-5-methoxy-2,3-dihydro-isoindol-1-one] | 49 | 9 | 33 | ~7 |
| Cc1nc(C)c(-c2csc(Nc3cc(S(N)(=O)=O)cc4c3OCC4)n2)s1 [Example 33, 7-(2′,4′-Dimethyl-[4,5′]bithiazolyl-2-ylamino)-2,3-dihydro-benzofuran-5-sulfonic acid amide] | 2.9 | 13 | > 95 | 7.3 |

More lines, in order of falling Kd [1], values ahead:

| Kd [1] [µM] | Kd [2] [µM] | Kd [3] [µM] | IC50 [4] [µM] | SMILES |
| --- | --- | --- | --- | --- |
| 84 | 8.9 | 3 | > 20 | CC(=O)Nc1nc(C)c(-c2csc(Nc3cc(C(N)=O)ccc3Cl)n2)s1 [Example 26, 3-(2′-Acetylamino-4′-methyl-[4,5′]bithiazolyl-2-ylamino)-4-chloro-benzamide.HBr] |
| 39 | 1.3 | 0.56 | 0.1 | CCOc1ccc(C(N)=O)cc1Nc1nc(-c2sc(NC(C)=O)nc2C)cs1 [Example 8, 3-(2′-Acetylamino-4′-methyl-[4,5′]bithiazolyl-2-ylamino)-4-ethoxy-benzamide.TFA] |
| 31 | 2.7 | 6.8 | 4.6 | Cc1ccc(C(N)=O)cc1Nc1nc(-c2sc(N)nc2C)cs1 [Example 25, 3-(2′-Amino-4′-methyl-[4,5′]bithiazolyl-2-ylamino)-4-methyl-benzamide.HBr] |
| 14 | 0.34 | 0.84 | 0.69 | COc1ccc(C(N)=O)cc1Nc1nc(-c2sc(C)nc2C)cs1 [Example 18, 3-(2′,4′-Dimethyl-[4,5′]bithiazolyl-2-ylamino)-4-methoxy-benzamide.HBr] |
| 12 | 0.082 | 0.73 | 0.46 | Cc1nc(C)c(-c2csc(Nc3cc(C(N)=O)ccc3OC(F)(F)F)n2)s1 [Example 17, 3-(2′,4′-Dimethyl-[4,5′]bithiazolyl-2-ylamino)-4-trifluoromethoxy-benzamide] |
| 7 | 0.83 | 5.1 | 6.1 | CCCOc1ccc(C(N)=O)cc1Nc1nc(-c2sc(C)nc2C)cs1 [Example 13, 3-(2′,4′-Dimethyl-[4,5′]bithiazolyl-2-ylamino)-4-propoxy-benzamide] |
| 1.9 | 0.72 | 0.25 | 0.15 | Cc1nc(NC(=O)C2CCN(C)CC2)sc1-c1csc(Nc2cc(C(N)=O)ccc2OC(C)C)n1 [Example 32, 1-Methyl-piperidine-4-carboxylic acid [2-(5-carbamoyl-2-isopropoxy-phenylamino)-4′-methyl-[4,5′]bithiazolyl-2′-yl]-amide] |
